Experiment [1] concerns the target Kallikrein-7 (Homo sapiens, UniProt P49862). Description: Fluorescence Intensity-based biochemical primary high throughput dose response assay to identify activators of kallikrein-7 (K7) zymogen.
Experiment [2] deals with Fatty acid synthase (Homo sapiens, UniProt P49327). Kind of experiment: FAS thioesterase domain inhibitors, dose response, biochemical, endpoint fluorescence intensity, uHTS hits (AID 624327).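 Note: fluorescence from hydrolysis of an O-methyl fluorescein acyl ester substrate by the enzyme.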 Format: functional.
Sequence of Fatty acid synthase (P49327 whole entry, the tested form may be a part): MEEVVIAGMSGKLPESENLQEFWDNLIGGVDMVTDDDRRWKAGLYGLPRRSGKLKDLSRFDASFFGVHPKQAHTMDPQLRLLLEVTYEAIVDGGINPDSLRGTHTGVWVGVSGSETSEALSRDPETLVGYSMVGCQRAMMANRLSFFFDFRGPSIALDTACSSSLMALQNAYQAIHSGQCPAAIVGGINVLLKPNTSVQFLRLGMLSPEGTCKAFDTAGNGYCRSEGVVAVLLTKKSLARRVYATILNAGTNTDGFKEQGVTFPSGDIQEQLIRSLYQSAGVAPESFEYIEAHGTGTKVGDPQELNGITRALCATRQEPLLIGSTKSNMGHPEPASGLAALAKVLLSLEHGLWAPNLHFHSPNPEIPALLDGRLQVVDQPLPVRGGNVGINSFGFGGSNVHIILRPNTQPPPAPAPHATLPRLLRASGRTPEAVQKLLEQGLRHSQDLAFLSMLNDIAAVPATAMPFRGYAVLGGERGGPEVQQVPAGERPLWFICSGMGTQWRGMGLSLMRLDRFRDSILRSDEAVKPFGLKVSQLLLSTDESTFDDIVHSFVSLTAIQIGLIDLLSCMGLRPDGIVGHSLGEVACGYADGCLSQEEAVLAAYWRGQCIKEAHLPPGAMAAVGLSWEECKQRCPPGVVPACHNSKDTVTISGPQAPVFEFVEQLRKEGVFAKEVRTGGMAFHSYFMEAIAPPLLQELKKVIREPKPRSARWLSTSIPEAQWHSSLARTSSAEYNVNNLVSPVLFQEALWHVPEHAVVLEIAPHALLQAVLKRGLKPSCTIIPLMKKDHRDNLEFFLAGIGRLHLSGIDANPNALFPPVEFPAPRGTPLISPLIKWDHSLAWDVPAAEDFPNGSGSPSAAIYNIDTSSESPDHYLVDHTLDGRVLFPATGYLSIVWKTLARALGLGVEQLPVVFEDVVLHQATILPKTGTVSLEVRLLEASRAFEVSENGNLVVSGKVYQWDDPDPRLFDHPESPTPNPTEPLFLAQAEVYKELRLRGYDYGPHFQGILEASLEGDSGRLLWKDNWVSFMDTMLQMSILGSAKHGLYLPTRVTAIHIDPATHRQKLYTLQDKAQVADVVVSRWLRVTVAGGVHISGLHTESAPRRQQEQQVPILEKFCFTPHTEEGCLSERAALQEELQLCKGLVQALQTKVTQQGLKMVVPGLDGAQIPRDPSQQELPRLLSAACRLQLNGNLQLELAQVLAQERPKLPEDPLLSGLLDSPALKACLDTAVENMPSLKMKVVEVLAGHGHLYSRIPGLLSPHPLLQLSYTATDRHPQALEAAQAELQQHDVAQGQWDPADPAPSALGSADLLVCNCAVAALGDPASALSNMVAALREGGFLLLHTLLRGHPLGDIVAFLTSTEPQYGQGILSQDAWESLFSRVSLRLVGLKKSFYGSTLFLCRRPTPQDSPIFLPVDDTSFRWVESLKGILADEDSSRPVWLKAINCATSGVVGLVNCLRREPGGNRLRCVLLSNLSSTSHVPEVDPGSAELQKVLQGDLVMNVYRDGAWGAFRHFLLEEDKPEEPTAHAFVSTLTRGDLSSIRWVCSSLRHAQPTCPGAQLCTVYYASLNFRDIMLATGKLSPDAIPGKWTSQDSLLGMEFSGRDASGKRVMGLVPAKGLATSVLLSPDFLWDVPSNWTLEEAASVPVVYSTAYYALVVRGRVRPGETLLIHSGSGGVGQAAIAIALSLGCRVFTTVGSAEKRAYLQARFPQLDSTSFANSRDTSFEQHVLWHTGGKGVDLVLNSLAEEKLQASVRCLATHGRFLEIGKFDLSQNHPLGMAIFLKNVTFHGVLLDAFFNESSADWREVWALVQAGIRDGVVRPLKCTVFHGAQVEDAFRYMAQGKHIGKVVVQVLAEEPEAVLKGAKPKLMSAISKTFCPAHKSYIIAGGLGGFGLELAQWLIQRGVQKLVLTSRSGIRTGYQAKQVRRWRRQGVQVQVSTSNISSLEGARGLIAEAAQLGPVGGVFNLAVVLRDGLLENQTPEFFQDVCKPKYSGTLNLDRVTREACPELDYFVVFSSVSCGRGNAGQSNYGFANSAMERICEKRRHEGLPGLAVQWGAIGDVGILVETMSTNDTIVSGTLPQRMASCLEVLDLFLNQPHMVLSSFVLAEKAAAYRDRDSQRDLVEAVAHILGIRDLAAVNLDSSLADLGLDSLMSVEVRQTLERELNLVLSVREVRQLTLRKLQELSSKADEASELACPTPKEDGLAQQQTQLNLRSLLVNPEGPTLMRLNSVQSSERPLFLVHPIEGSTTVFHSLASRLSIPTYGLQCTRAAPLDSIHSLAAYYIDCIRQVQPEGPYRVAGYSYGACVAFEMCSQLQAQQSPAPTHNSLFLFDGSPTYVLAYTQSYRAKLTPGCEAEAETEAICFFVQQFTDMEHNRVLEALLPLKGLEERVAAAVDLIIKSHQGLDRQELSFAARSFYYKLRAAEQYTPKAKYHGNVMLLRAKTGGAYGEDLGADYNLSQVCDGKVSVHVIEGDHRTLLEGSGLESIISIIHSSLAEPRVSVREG
A short description of experiment [3]: THP-1 cell cytotoxicity, dose response, cytotoxicity control for Vif-APOBEC3G degradation inhibitor project, THP-1 cells (AID 1117359). Format: functional. The settings on record: Human immunodeficiency virus 1, THP-1.
A short description of experiment [4]: growth suppression of PTEN-null colon cells, dose response, cell-based, HCT116 PTEN knockout (AID 1047).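 Note: HCT116 colon tumor cells with PTEN knocked out; cells exposed to compound for 60 hours before readout; potency for loss of cell viability measured by luminescence.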 The experiment is classed as functional.
The nature of experiment [5]: NIH-3T3 fibroblast cytotoxicity, dose response, cytotoxicity control, cell-based, fluorescence, Alamar Blue, secondary assay (AID 2327).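 Note: NIH-3T3 mouse fibroblasts cultured with fluconazole at 8 µg/mL.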 The experiment is classed as functional. (The colour change of resazurin is a common sign of viable cells or microbes.)
In experiment [6] the target is T1, X-box-binding protein 1 (Homo sapiens, UniProt P17861).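 Note: confirmatory dose-response counter-screen serving a CHOP assay.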
T1 sequence (P17861 whole entry): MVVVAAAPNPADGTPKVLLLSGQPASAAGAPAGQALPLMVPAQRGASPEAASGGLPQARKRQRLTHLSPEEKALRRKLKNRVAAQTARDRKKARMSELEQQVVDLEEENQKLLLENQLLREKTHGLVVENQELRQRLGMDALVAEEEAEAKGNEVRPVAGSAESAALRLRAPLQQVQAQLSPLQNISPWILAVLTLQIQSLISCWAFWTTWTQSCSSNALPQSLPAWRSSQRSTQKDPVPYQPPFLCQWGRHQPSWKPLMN
The experiment is classed as functional, Cricetulus griseus.

Experiment [7] can be described thus: inhibitors of Vif binding to APOBEC3G peptide, primary screen, biochemical, TR-FRET, GST-Vif 1-94, biotin-A3G peptide, dose response retest (AID 1117319).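 Note: TR-FRET signal of purified GST-Vif binding a biotinylated A3G peptide; inhibitors lower the FRET signal by blocking Vif and A3G binding.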 The experiment is classed as functional.
Experiment [8] concerns BJ. Description: cytotoxicity toward BJ-TERT fibroblasts, dose response, cell-based, RAS-independent, luminescence (AID 1933). The experiment is classed as functional. Conditions: Homo sapiens.
Experiment [9] in a line: growth suppression of beta-catenin-knockout colon cells, dose response, cell-based, HCT116, human colon tumor (AID 1045).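 Note: HCT116 colon tumor cells with beta catenin knocked out; cells exposed to compound for 60 hours.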 Format: functional.
A short description of experiment [10]: cytotoxicity toward DRD oncogenic fibroblasts, dose response, cell-based, non-viral oncogenic, luminescence (AID 1934). Conditions: Homo sapiens. Format: functional.
Experiment [11] has as its system HEK293. Description: cells. Conditions: Homo sapiens.
Experiment [12] concerns Vero. Kind of experiment: cells. Format: functional. Conditions: Chlorocebus sabaeus.
Experiment [13] concerns the target Heat shock protein HSP 90-alpha (Homo sapiens, UniProt P07900). The experiment is classed as functional, organism-based.
Experiment [14] can be described thus: Fluorescence-based cell-based high throughput dose response assay for inhibitors of the interaction of nucleotide-binding oligomerization domain containing 2 (NOD2) and the receptor-interacting serine-threonine kinase 2 (RIPK2). The experiment is classed as functional. Conditions: Homo sapiens.
Experiment [15] concerns the target DNA damage-inducible transcript 3 protein (Mus musculus, UniProt P35639). Format: functional, Cricetulus griseus.
Experiment [16] is described as follows: cytotoxicity toward NIH3T3 fibroblasts, dose response, counter-screen, cell-based, ATP luminescence, mouse fibroblasts (AID 2010).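 Note: cells exposed to compound for about 90 hours before reading.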 The experiment is classed as functional. Background: Counterscreens check selectivity or assay interference.
The test system of experiment [17] is BJ. Kind of experiment: cytotoxicity toward BJ-TERT-LT-ST fibroblasts, dose response, cell-based, RAS-independent, luminescence (AID 1935).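 Note: BJ fibroblasts immortalized with TERT plus LT and ST oncogenes.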 The experiment is classed as functional. Conditions: Homo sapiens.
Experiment [18] deals with T2, Lysine-specific demethylase 4C (Homo sapiens, UniProt Q9H3R0).
T2 sequence (Q9H3R0 whole entry): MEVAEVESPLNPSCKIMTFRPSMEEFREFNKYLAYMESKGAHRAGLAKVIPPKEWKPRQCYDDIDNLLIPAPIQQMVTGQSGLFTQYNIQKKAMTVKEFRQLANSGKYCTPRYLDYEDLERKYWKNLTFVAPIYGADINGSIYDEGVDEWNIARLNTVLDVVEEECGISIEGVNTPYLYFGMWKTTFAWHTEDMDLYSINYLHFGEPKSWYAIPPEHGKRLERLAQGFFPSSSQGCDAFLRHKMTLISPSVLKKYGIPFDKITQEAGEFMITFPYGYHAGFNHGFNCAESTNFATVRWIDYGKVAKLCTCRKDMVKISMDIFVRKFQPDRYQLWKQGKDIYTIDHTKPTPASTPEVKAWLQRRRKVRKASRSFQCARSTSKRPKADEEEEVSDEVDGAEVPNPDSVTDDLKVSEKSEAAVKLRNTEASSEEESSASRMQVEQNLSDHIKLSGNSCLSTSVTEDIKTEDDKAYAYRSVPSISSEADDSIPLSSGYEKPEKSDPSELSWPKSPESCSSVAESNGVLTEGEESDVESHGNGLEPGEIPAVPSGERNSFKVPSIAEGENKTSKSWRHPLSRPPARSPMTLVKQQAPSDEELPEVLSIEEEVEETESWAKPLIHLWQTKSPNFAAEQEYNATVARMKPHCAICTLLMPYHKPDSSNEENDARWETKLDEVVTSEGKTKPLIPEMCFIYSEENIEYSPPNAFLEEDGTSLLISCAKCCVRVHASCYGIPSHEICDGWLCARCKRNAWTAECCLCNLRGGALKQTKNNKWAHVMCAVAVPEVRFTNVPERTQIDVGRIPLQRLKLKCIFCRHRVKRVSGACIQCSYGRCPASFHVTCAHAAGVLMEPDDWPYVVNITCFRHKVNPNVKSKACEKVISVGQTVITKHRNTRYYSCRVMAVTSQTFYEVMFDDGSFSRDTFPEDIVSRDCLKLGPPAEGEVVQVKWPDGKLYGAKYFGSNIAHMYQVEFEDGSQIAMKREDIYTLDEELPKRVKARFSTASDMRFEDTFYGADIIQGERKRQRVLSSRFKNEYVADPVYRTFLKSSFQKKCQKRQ
Description: GASC-1 (JMJD2C) histone demethylase inhibitors, dose response, biochemical, DELFIA europium, cherry-picked samples (AID 488835). The experiment is classed as functional.

Activity calls are given as the source filed them.

The source of these data is ChEMBL document CHEMBL1201862, “PubChem BioAssay data set” (2004).

The term EC50 denotes the concentration giving half of the maximal effect. The IC50 is the midpoint of a concentration-inhibition curve. By CC50 is commonly meant the concentration giving 50% cytotoxicity. Usually AC50 stands for the concentration at which the activity in the assay is half-maximal.

Sequence of Kallikrein-7 (P49862 whole entry, the tested form may be a part): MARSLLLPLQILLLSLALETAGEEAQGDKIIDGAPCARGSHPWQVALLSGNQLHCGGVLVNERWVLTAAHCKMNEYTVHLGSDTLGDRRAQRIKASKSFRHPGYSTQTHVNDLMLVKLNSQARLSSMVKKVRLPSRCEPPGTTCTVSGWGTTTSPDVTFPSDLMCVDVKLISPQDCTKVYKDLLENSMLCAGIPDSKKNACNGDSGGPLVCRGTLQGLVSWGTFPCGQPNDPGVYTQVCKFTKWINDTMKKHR
Sequence of DNA damage-inducible transcript 3 protein (P35639 whole entry): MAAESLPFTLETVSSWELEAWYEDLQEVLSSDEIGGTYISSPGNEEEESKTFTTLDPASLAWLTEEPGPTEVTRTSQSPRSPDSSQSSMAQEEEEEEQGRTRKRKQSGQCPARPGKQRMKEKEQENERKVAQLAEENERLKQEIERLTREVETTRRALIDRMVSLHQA

On to `O=c1[nH]c(N2CCOCC2)cc2ccccc12`, for which the EC50 in experiment [1] is > 69.6 µM (inactive).
Take `O=[N+]([O-])c1ccc(Sc2nc3ccccc3o2)c([N+](=O)[O-])c1`: the IC50 in experiment [2] is 15.8 µM (active); in experiment [7], > 100 µM (active); in [14] it was 1.92 µM (active). The CC50 in experiment [3] is 2.46 µM (active); in experiment [12] it was 4.12 µM (active). Further, the EC50 in [4] is 6.88 µM (active); in [5], 5.82 µM (inconclusive); in experiment [8], 3.27 µM (active); in experiment [9] it was 5.57 µM (active); in experiment [10], 4.54 µM (inconclusive); in [11] it was > 59.6 µM (inactive). The EC50 is 1.81 µM (active) in experiment [16] and 5.55 µM (active) in [17]. Also, the “Absolute IC50 (XBP1)” value in experiment [6] was determined as 10 µM. For the same compound, the AC50 in [13] is 2.22 µM (active). Besides, the “Absolute IC50 (CHOP)” value in experiment [15] was determined as 10 µM.
Take `O=C1c2ccccc2C(=O)C12OC2c1cccc2ccccc12` (stereo not drawn): in [18], the AC50 is 6.61 µM (active).
